Laboratory results reported in patent US20140135310A1, “SULPHONAMIDE DERIVATIVES OF ALICYCLIC AMINES FOR THE TREATMENT OF CENTRAL NERVOUS SYSTEM DISEASES” (Adamed Sp. z o.o., priority 2011, published 2014).

Columns and labels:
[1] = system: dizocilpine-induced locomotor hyperactivity; test: Dizocilpine (MK-801)-induced locomotor hyperactivity in mice; format: in vivo; conditions: reversal of dizocilpine (MK-801)-induced hyperlocomotion, male CD-1 mice, i.p., 30 minutes before the experiment
Method: Potential antipsychotic activity was tested for the representative compounds in mouse model of psychosis, involving the induction of locomotor hyperactivity by administering psychotomimetic substance—dizocilpine. The ability of a test compound to remove this effect is a measure of potential antipsychotic activity.
Male CD-1 mice were group-housed for 2-3 day period in polycarbonate Makrolon type 3 cages (dimensions 26.5×15×42 cm) in an environmentally controlled, experimental room (ambient temperature 22-20° C.; relative humidity 50-60%; 12:12 light:dark cycle, lights on at 8:00), in groups of 15. Standard laboratory food (Ssniff M-Z) and filtered water were freely available. On the day before experiments the equipment produced “white noise” was turned on for 30 minutes and mice were weighted exact to 1 g. Animals were assigned randomly to treatment groups. All the experiments were performed by two observers unaware of the treatment applied between 9:00 and 14:00 on separate groups of animals. Mice were used only once and were killed immediately after the experiment.
The locomotor activity was recorded with an Opto M3 multi-channel activity monitor (MuttiDevice Software v.1.3, Columbus Instruments). The mice were individually placed in plastic cages (22×12×13 cm) for 30 minutes habituation period, and then the crossings of each channel (ambulation) were counted during 1 h with data recording every 5 minutes. The cages were cleaned up with 70% ethanol after examining each mouse. Drugs were administered to 10 mice per treatment group. Test compounds were given 30 minutes before the experiment. Dizocilpine was administered 30 minutes before the test.
Test compounds were prepared as a suspension in 1% aqueous solution of Tween 80, and dizocilpine was dissolved in distilled water immediately before administration. An injection volume of 10 ml/kg was used and all compounds were administered intraperitoneally (i.p.).

[2] = biological target: T1, hERG potassium channels (KCNH2 gene, expressed in CHO cells) (Homo sapiens, UniProt Q12809); test: Ability to block hERG potassium channel (electrophysiology, IonWorks Quattro); format: cell-based; conditions: % block of hERG current, test compound 1×10^−5 M
T1 construct: expressed in transfected cells; host or cells: CHO cells
Method: Moreover, the ability of the compounds of the invention to block potassium channel hERG was tested.
Ability to block hERG potassium channels was determined using the electrophysiological method and cloned hERG potassium channels (KCNH2 gene, expressed in CHO cells) as biological material. The effects were evaluated using IonWorks™ Quattro system (MDS-AT).
hERG current was elicited using a pulse pattern with fixed amplitudes (conditioning pre-pulse: −80 mV for 25 ms; test pulse: +40 mV for 80 ms) from a holding potential of 0 mV. hERG current was measured as a difference between the peak current at 1 ms after the test step to +40 mV and the steady-state current at the end of the step to +40 mV.
Data acquisition and analyses was performed using the IonWorks Quattro™ system operation software (version 2.0.2; Molecular Devices Corporation, Union City, Calif.). Data were corrected for leak current.
The hERG block was calculated as:
% Block=(1−ITA/IControl)×100%,
where IControl and ITA were the currents elicited by the test pulse in control and in the presence of a test article, respectively.
Concentration-response data for the blocks were fit to an equation of the following form:
% Block=% VC+{(% PC−% VC)−(% PC−% VC)/[1+([Test]/IC50)N]},

[3] = biological target: T2, 5-HT reuptake (rat brain synaptosomes) (Rattus norvegicus, UniProt P31652); test: 5-HT reuptake, [3H]5-HT incorporation into rat brain synaptosomes; format: biochemical; conditions: 15 min/37° C., read-out: SERT IC50
T2 construct: measuring [^3H]5-HT incorporation into rat brain synaptosomes; from tissue; host or cells: rat brain synaptosomes
Method: 5-HT reuptake was tested according to Perovic, S. and Muller, W.E.G. (1995) Arzneim-Forsch. Drug Res., 45: 1145-1148 by measuring [^3H]5-HT incorporation into rat brain synaptosomes. Assay conditions are as follows:
Tracer: [^3H]5-HT (0.2 μCi/ml)
Incubation: 15 min/37° C.

T1 sequence (Q12809 whole entry): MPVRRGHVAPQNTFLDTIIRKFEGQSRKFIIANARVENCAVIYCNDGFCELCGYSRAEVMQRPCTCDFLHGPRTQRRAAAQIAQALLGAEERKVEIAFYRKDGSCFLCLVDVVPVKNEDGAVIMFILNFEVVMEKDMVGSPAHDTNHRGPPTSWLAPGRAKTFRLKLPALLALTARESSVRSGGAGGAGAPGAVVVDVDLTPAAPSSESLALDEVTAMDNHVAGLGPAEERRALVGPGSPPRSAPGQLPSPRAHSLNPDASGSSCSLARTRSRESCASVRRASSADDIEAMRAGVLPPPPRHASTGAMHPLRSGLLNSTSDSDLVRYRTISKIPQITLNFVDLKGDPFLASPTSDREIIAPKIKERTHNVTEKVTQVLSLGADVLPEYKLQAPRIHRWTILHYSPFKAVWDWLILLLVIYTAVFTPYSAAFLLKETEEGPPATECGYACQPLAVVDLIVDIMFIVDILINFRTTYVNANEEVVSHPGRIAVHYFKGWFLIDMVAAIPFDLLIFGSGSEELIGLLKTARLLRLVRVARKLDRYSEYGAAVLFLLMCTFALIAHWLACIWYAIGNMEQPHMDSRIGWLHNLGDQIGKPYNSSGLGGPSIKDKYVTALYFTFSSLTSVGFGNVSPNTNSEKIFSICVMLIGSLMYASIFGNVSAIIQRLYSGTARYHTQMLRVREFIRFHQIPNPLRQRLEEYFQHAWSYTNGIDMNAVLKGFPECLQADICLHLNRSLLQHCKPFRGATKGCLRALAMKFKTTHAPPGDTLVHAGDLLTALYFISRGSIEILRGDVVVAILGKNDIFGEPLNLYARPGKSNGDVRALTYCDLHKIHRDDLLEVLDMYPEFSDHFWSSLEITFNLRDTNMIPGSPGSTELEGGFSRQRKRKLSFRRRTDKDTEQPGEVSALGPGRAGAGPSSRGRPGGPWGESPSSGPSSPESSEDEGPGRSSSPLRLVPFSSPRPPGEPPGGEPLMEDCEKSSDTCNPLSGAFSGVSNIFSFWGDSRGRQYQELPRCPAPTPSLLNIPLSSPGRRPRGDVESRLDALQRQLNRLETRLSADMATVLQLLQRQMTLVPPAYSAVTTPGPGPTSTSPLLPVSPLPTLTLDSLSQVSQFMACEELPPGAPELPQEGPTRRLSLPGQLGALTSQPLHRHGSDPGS
T2 sequence (P31652 whole entry): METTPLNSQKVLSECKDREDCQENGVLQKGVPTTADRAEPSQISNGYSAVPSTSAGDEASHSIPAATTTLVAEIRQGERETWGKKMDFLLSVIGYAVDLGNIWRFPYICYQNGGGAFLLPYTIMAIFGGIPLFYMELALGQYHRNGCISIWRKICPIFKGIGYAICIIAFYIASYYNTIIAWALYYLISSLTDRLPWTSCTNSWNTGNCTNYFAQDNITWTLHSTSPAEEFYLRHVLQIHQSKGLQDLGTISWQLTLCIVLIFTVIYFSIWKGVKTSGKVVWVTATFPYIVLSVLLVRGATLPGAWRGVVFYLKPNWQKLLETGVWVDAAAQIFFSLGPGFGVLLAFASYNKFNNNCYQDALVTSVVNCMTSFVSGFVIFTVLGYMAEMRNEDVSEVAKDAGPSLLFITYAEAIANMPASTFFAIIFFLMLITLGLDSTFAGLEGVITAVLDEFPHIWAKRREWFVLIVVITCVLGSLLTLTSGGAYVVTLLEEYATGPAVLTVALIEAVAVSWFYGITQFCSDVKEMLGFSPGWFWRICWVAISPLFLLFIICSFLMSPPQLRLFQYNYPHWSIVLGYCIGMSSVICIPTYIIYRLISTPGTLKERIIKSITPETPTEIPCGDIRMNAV

| SMILES | MED* [mg/kg] (minimum effective dose) [1] | hERG [%] [2] | IC50 [3] |
| --- | --- | --- | --- |
| O=S(=O)(N[C@@H]1CCN(CCCc2noc3cc(F)ccc23)C1)c1cc2ccccc2s1 [Compound 196, N-[(3R)-1-[3-(6-Fluoro-1,2-benzoxazol-3-yl)propyl]pyrrolidin-3-yl]benzo-thiophene-2-sulphonamide] | 2.5 mg/kg | – | – |
| O=S(=O)(NC1CN(CCOc2cccc3c2OCCO3)C1)c1cccc2ccccc12 [Compound 94, N-[1-[2-(2,3-Dihydro-1,4-benzodioxan-8-yloxy)ethyl]azetidin-3-yl]-naphthalene-1-sulphonamide] | – | 4.8% | – |
| O=S(=O)(NC1CCN(CCCc2noc3cc(F)ccc23)CC1)c1cccc2ccccc12 [Compound 34, N-[1-[3-(6-Fluoro-1,2-benzoxazol-3-yl)propyl]-4-piperidine]-naphthalene-1-sulphonamide] | – | −1.1% | – |
| O=S(=O)(NC1CCN(CCCc2c[nH]c3ccc(Cl)cc23)C1)c1cccc(Cl)c1 (stereo not shown) [Compound 84, 3-Chloro-N-[1-[3-(5-chloro-1H-indol-3-yl)propyl]pyrrolidin-3-yl]benzenesulphonamide] | – | – | 0.064 µM |
| O=S(=O)(NC1CCN(CCCc2c[nH]c3ccc(F)cc23)C1)c1ccc2ccccc2c1 (stereo not shown) [Compound 80, N-[1-[3-(5-Fluoro-1H-indol-3-yl)propyl]pyrrolidin-3-yl]naphthalene-2-sulphonamide] | – | – | 0.0021 µM |
| O=S(=O)(NC1CCN(CCCc2noc3cc(F)ccc23)C1)c1csc2ccccc12 (stereo not shown) [Compound 26, N-[1-[3-(6-Fluoro-1,2-benzoxazol-3-yl)propyl]pyrrolidin-3-yl]-benzothiophene-3-sulphonamide] | – | 6.1% | – |
| O=S(=O)(NC1CCN(CCCc2noc3cc(F)ccc23)C1)c1cc2ccccc2s1 (stereo not shown) [Compound 25, N-[1-[3-(6-Fluoro-1,2-benzoxazol-3-yl)propyl]pyrrolidin-3-yl]-benzothiophene-2-sulphonamide] | 5 mg/kg | 2.9% | – |
| O=S(=O)(NC1CCN(CCCc2noc3cc(F)ccc23)C1)c1ccc2ccccc2c1 (stereo not shown) [Compound 21, N-[1-[3-(6-Fluoro-1,2-benzoxazol-3-yl)propyl]pyrrolidin-3-yl]naphthalene-2-sulphonamide] | 10 mg/kg | 3.3% | – |
